Measured values published in patent publication US11566226B2, “Natural killer cells” (Imperial College of Science, Technology and Medicine, priority 2017, dated 2023).

B1: rDLL1: recombinant delta-like ligand 1 protein (R&D Systems), coated on culture plates (protein, UniProt O00548 18-723, looked up)
Delta-like protein 1: QVWSSGVFELKLQEFVNKKGLLGNRNCCRGGAGPPPCACRTFFRVCLKHYQASVSPEPPCTYGSAVTPVLGVDSFSLPDGGGADSAFSNPIRFPFGFTWPGTFSLIIEALHTDSPDDLATENPERLISRLATQRHLTVGEEWSQDLHSSGRTDLKYSYRFVCDEHYYGEGCSVFCRPRDDAFGHFTCGERGEKVCNPGWKGPYCTEPICLPGCDEQHGFCDKPGECKCRVGWQGRYCDECIRYPGCLHGTCQQPWQCNCQEGWGGLFCNQDLNYCTHHKPCKNGATCTNTGQGSYTCSCRPGYTGATCELGIDECDPSPCKNGGSCTDLENSYSCTCPPGFYGKICELSAMTCADGPCFNGGRCSDSPDGGYSCRCPVGYSGFNCEKKIDYCSSSPCSNGAKCVDLGDAYLCRCQAGFSGRHCDDNVDDCASSPCANGGTCRDGVNDFSCTCPPGYTGRNCSAPVSRCEHAPCHNGATCHERGHRYVCECARGYGGPNCQFLLPELPPGPAVVDLTEKLEGQGGPFPWVAVCAGVILVLMLLLGCAAVVVCVRLRLQKHRPPADPCRGETETMNNLANCQREKDISVSIIGATQIKNTNKKADFHGDHSADKNGFKARYPAVDYNLVQDLKGDDTAVRDAHSKRDTKCQPQGSSGEEKGTPTTLRGGEASERKRPDSGCSTSKDTKYQSVYVISEEKDECVIATEV

Legend:
HPCs = test: NK cell production from HPCs treated with SR8278 and/or cultured on rDLL4 (flow cytometry); format: cell-based, mouse; conditions: SR8278 on day 2 of culture, no rDLL4; average of triplicate experiments
Method: HPCs were cultured in four sets of conditions in addition to control (non-treated) conditions: (i) treated with SR8278 on day 2 of culture (no recombinant DLL4, rDLL4); (ii) cultured on rDLL4 (no SR8278); (iii) cultured on rDLL4 and treated with SR8278 on day 0 of culture; or (iv) treated with SR8278 on day 0 of culture, cultured on rDLL4 from day 2. Aside from the different treatments, the culture conditions were otherwise identical to those previously described for NK cell production from HPCs.
This experiment was repeated with an expanded set of culture conditions, as set out in FIG. 13. The results of this duplicate experiment are illustrated in FIG. 14.
Lineage negative HPCs were purified from mouse bone marrow by crushing the leg bones in Phosphate-buffered Saline (PBS) with 2% fetal calf serum (FCS) (STEMCELL Technologies), topped up to 40 ml with magnetic-activated cell sorting (MACS) buffer (PBS, 2 mM EDTA, 0.5% BSA, sterile and filtered) and centrifuged at 800 g for 2 minutes. […]
(§1) Cells to be analysed by flow cytometry were passed through 40 μm cell strainers to remove clumps and washed with PBS buffer, centrifuged at 800 g for 2 minutes and resuspended in 100 μl fluorescent activated cell sorting (FACS) buffer (PBS plus 1% BSA) with appropriate fluorochrome conjugated antibodies at a dilution of 1 in 300. […]

HPC culture = conditions: previously demonstrated, cited from earlier work
human HPCs = human HPCs cultured in vitro; previously demonstrated; cited from earlier work
E4bp4 = conditions: cited from earlier work
E4bp4−/− Lin− BM cells = test: NK cell development from E4bp4−/− Lin− BM cells on rDLL1/rDLL4-coated plates; format: cell-based, mouse; conditions: plates coated with 10 μg/ml ligand, first 7 days of culture, then IL-15
Method: As E4bp4 appeared to regulate Notch1 expression, it was speculated that enhanced Notch signalling, at an early stage, could potentially affect the development of NK cells from E4bp4^−/− HPCs. To study NK cell development from HPCs in the presence or absence of Notch signalling, Lin^− BM cells were cultured on either OP9 stromal cells or OP9-DL1 cells (that express the Notch ligand delta-like 1) (FIG. 10C). Subsequently, cells were transferred onto fresh OP9 and cultured in the presence of IL-15 (FIG. 11A). When E4bp4^−/− cells were grown on control OP9, no NK cell development was observed, but when the E4bp4^−/− cells were grown on OP9-DL1 for the first part of the culture, remarkably, NK cell development was rescued (FIG. 11B). The same result was not observed when the cells were grown on OP9-DL1 for the second part of the culture (FIG. 11B). To eliminate the influence of stromal cells, tissue culture plates were coated with either recombinant delta-like ligand 1 (rDLL1) or rDLL4 protein. […]
as §1

Row | Molecule | % of NK cells produced (HPCs) [%] | Optimum dose for in vitro NK cell production (HPC culture; added to the HPC culture, optimum time Day 2) [µM] | Increase of production of NK cells (HPC culture; upon administration of SR8278) | Human NK cell development (human HPCs) | E4bp4 expression (E4bp4) | Rescue of NK cell production in the absence of E4bp4 (E4bp4−/− Lin− BM cells)
1 | CCOC(=O)C1Cc2ccccc2CN1C(=O)c1ccc(SC)s1 (stereo not drawn) [SR8278, 1,2,3,4-Tetrahydro-2-[[5-(methylthio)-2-thienyl]carbonyl]-3-isoquinolinecarboxylic acid ethyl ester] | 57.5 | 10 | more than 2 fold | significantly increase | increased | –
2 | B1 | – | – | – | – | – | Only a very partial rescue
